What was measured:
[1] = test system: HLE cells; test: Growth inhibition assay (MTT), HLE; format: cell-based, human; conditions: Homo sapiens
Experimental: The effect of IMSs (IBN-15, IBN-19, IBN-24, IBN-25 and IBN-32) on the proliferative properties of p53 mutant cell line HLE was examined. The cytotoxicity activity and proliferation inhibition of IMSs in tumor cells were measured by MTT. […] The control experiments with DMSO alone (0.05% v/v) had no effect on cell proliferation. […] (Table 4) Microscopic observation on the cell cultures visually confirmed the inhibition on cell proliferation by IMSs. (FIG. 35)

[2] = test system: HLE cells; test: Apoptosis assay (Annexin V-FITC/PI flow cytometry); format: cell-based, human; conditions: 72 h, IBN-15 60 μM, IBN-19 90 μM, IBN-24 90 μM, IBN-25 30 μM, IBN-32 20 μM, DMSO 0.045%
Experimental: FIG. 36. IMSs induce apoptosis in Hepatocarcinoma cells. A) Cells were treated with vehicle and IBN 15, IBN 19, IBM 24, IBN 25 and IBN 32 for 72 h, and apoptosis was quantified using Annexin V-FITC/PI staining followed by flow cytometric analysis. 10,000 cells were detected for every sample. Living cells are in the bottom left quadrants (FITC− and PI−), early apoptotic cells in the bottom right quadrants (FITC+ and PI−), and late apoptotic cells in the upper right quadrants (apoptotic FITC+ and PI+). B) The percentage of apoptotic cells with respect to different IMSs.
To determine apoptosis analysis, 4×10^5 cells were plated in 10 cm dish. […] The floating and trypsinized adherent cells were collected and the apoptosis was quantified using Annexin V-FITC reagent (BD Biosciences Pharmingen) and PI (Invitrogen) following the manufacturer's protocol. Briefly, the cells were washed twice with cold PBS and then resuspend cell in 100 μl of × binding buffer containing a 10 μl of Annexin V-FITC (BD-Pharminagen) and 2 μl of PI from the stock of 100 μg/ml. The cells were gently vortexed and incubated for 15 min at room temperature in the dark. Subsequently 400 μl of 1× binding buffer were added to each tube, and the samples were immediately analyzed by FACScan flow cytometer (Becton Dickinson). The fluorescent signals of the Annexin-V conjugate and PI were detected at channels of fluorescence intensity FL1 and FL2 (BD LSR II with software BD).
Cells undergoing apoptosis would stain positive for Annexin and negative for PI (quadrant 4, Q4). Cells which stained positive for both Annexin V-FITC and PI (Q2) are either at the end stage of apoptosis or undergoing necrosis, and those which stained negative for both Annexin V-FITC and PI (Q3) were alive or undergoing undetectable apoptosis. In contrast, cell debris stained only for PI (Q1).

[3] = test system: HLE cells; test: Cell cycle analysis (PI flow cytometry); format: cell-based, human; conditions: 72 h; for cells in the S phase: at respective IC-50, control 24%; for cells in the G2/M phase: at respective IC-50, control 30%; for cells in the G1 phase: at respective IC-50, control 50%
Experimental: FIG. 37. IMSs arrest Hepatocarcinoma cells. Cells were treated with vehicle and IBN 15, IBN 19, IBN 24, IBN 25 and IBN 32 for 72 h, and cell cycle distribution was assessed by flow cytometry. A) Example FACS profiles of propidium iodide-stained control cells, and cells treated with IMSs respectively. B) % of cells in cell cycle phase C) % of cells in subG0 population. Each value is the mean±S.D. of three determinations.
To perform cell cycle distribution analysis, 4×10^5 cells were plated in 10 cm dish. The cells (70% confluence) were serum-starved for 24 h to synchronize them in the G0 phase of the cell cycle. After 24 h incubation, the cells were replaced with fresh 10% DMEM medium and then treated 60 μM of IBN-15, 90 μM of IBN-19, 90 μM of IBN-24, 30 μM of […] and 20 μM of IBN-32) and 0.045% DMSO as control for 72 h. The floating and trypsinized adherent cells were collected and washed with PBS. The cell pellets were resuspended in 1 ml of PBS and fixed by the addition of 70% ice-cold ethanol and stored at −20° C. After incubation for 24 hr, the cells were re-pelleted by centrifugation, the cells were washed once with PBS and resuspended in 0.1 mL of PBS containing 100 μg/ml of RNase and then incubated at 37° C. for 15 min. Finally, the cells were stained with 0.5 ml of PI solution (100 μg/mL in PBS) for 30 min. Cell cycle distribution was detected by a BD FACS array flow cytometer (Becton Dickinson). Cells with sub-G0 DNA were classified as apoptotic cells.

[4] = test system: MKN 28; test: Growth inhibition assay (MTT), MKN 28; format: cell-based, human; conditions: MKN 28, 72 h
Experimental: (§3) The percentage of growth inhibition was determined by using a MTT assay to measure viable cells. For the MTT assay, 1×10^3 cells per well were cultured in 96-well plates and treated with 0 to 100 μM of various types of IMSs for 72 h. After incubation for specified times at 37° C. in a humidified incubator, culture medium replaced with 10 μL of MTT reagent (5 mg/mL) contains 100 μL medium was added to each well and further incubated for 4 h. The reaction was stopped by adding 100 μL of DMSO. Absorbance was measured at 570 nm on a micro plate reader (SpectroMax 190, Molecular Devices). Data were presented from three separate experiments, and the percentage of IMSs induced cell growth inhibition was determined where DMSO-treated cells (control) were taken as 100%.
(§4) First, the cytotoxic effect of these drugs on these cells was investigated using the MTT assay. Cells were seeded into 96 well plates and treated with increasing concentrations of these synthetic organic molecules for 72 h, and then the cytotoxic effect was measured.

[5] = test system: MDAMB231; test: Growth inhibition assay (MTT), MDAMB231; format: cell-based, human; conditions: MDAMB231, 72 h
Experimental: as §3, §4

[6] = test system: MCF-10A; test: Growth inhibition assay (MTT), MCF-10A; conditions: 72 h
Experimental: as §3, §4

[7] = test system: caspase 3, caspase 9 and PARP; test: Western blot of caspase-3, caspase-9 and PARP cleavage in HLE; format: cell-based, human; conditions: 72 h
Experimental: FIG. 38. IMSs, induce cleavage of caspase-3, caspase-9 and PARP. Western blot analysis for the effect of IBN 15, IBM 19, IBN 24, IBM 25, IBN 32 on the cleavage of caspase-3, Caspase-9 and PARP in HLE cells after 72 h exposure to indicated doses of IMSs.
The HLE cells were seeded at a density of 4×10^5 in 10 cm dish. After 24 h incubation, the cells were replaced with fresh 10% DMEM medium and then treated with 60 μM of IBN-15, 90 μM of IBN-19, 90 μM of IBN-24, 30 μM of IBN-25 and 20 μM of IBN 32 and 0.045% DMSO as control for 72 h. Whole cell lysates were prepared on day 3 with lysis buffer [125 mM Tris (pH 7.4), 2% Sodium dodecyl sulfate, 10% glycerol, 6M urea and a protease inhibitor cocktail (Sigma) and 0.02% Bromophenol blue]. The lysates were sonicated for 30 seconds and then heated for 5 mins at boiling temperature. The lysates were centrifuged at 13000 rpm for 10 mins and the protein concentration of each sample was estimated using the BCA protein assay. The lysates was then mixed with 5% 2-mercaptoethanol and stored at −80 C. For Western blotting, samples containing 50 μg of total cell lysate were loaded onto a SDS-PAGE and subjected to electrophoresis. Proteins were transferred to a nitrocellulose membrane and then blocked with 5% non-fat dry milk in Tris buffer saline containing 0.1% Tween 20 for 60 min at 37 C. The membranes were probed with a primary antibody overnight at 4 C in TEST containing 5% Bovine serum albumin. Then the membrane was incubated with horseradish peroxidase (HRP)-conjugated anti-rabbit or anti-mouse secondary antibodies (GE Health care, Chalfont St Giles, UK). Detection was performed with enhanced chemiluminescence (ECL) reagent (Amersham Arlington Heights, Ill.) according to the manufacturer's protocol. Rabbit polyclonal Phospho-p53 (Ser15, 20, 46, 392), anti-caspase-9, anti-caspase-3, anti-PARP antibodies were purchased from Cell Signaling Technology, Inc. (Beverly, Mass., USA). Antibodies against p53 and p21 were purchased from Santa Cruz Biotechnology (Santa Cruz, Calif., USA).

[8] = test system: p53 signaling pathway-associated gene expression in HLE cells; test: Real-time PCR array of p53 signaling pathway-associated genes; format: cell-based, human; conditions: 48 h
Experimental: FIG. 42. Real-Time PCR array analysis of p53 signaling pathway-associated gene expression. (A) Anti-apoptotic genes. (B) Growth inhibition gene SESN2. (C) Cell cycle check point genes. (D) Cell proliferation genes. (E) DNA repair gene ATM. The relative level of gene expression was normalized with housekeeping gene GAPDH. Values are expressed as mean±standard deviation.
Cells were seeded at a density of 4×10^5 cells per dish in 10 cm dishes. Next day, the cells were exposed to 90 uM of IBN-19, 90 uM of IBN-24, 40 uM of IBN-25 and 0.045% of DMSO (Dimethyl Sulphoxide) as the control. After 48 hrs, total RNAs were extracted from the cells using Nucleospin RNA II kit as per the manufacturer's istructions. RNA quality and yield were evaluated after spectrophotometer measurements.
The human apoptosis PCR array (RT^2 Profiler) was used to analyze mRNA levels of 84 key genes involved in apoptosis, in a 96-well format, according to the manufacturer's instructions (Super Array Bioscience). First-strand cDNA was synthesized with 1 μg of RNA by using a PCR array first strand-synthesis kit (C-03; Super array Bioscience). This kit uses reverse transcriptase (Power Script; Super array Bioscience) and a combination of random primers and oligo dT primers. The total volume of the reaction was 20 μL diluted to 100 μL. PCR reactions were performed using real-time PCR (79s00HT 96-well block with RT^2 Real-Time SYBR Green PCR master mix PA-012; Applied Biosystems Instruments 7500). The total volume of the PCR reaction was 25 μl. An equivalent of […] of RNA was applied to the PCR reaction. The thermocycler parameters were 95° C. for 10 minutes, followed by 40 cycles of 95° C. for 15 seconds and 60° C. for 1 minute. Relative changes in gene expression were calculated using the ΔΔCt (cycle threshold) method. An average of the number of cycles of the five housekeeping genes, GAPDH, Actin-β, β2m, Hprt1, and Rpl13d, was used to normalize the expression between samples. The expression data are presented as fold regulation. GAPDH gene expression levels were utilized as an internal control to normalize the data. Reported fold changes in expression are the ratios of treatment over control values.
To obtain more information on how the IMSs influence other gene expression in the HLE cells, 84 genes related to p53 signal transduction were profiled by using the RT^2 Profiler array (Super Array Bioscience) (FIG. 42A, B, C, D, E). The array includes keys genes relevant to p53, apoptosis, cell cycle, cell growth, proliferation, differentiation, and DNA repair.

[9] = test system: HLE cells; test: Annexin V staining and flow cytometry, HLE; format: cell-based, human; conditions: 24 hr, TRAIL 100 ng/ml
Experimental: (§1) FIG. 22. […] HLE or HepG2 cells were incubated with DBZIM of various concentrations for 6 hr, and assayed for caspase 3/7 activity and LDH releasing (expressed as % toxicity). DBZIM induced apoptosis as characterized by annexin V staining using flow cytometer in HLE (E) and HepG2 (F). Scatter plot and histogram gave the representative information on the cell population distribution while bar graphs quantified the percentage of apoptotic cells from the histogram. HLE and HepG2 cells were treated by DBZIM of various concentrations for 24 hr before harvesting for annexin V staining and flow cytometric analysis.
(§2) HLE and HepG2 cells were treated with various concentrations of DBZIM or TRAIL (100 ng/ml) for 24 hr, harvested and labeled with Annexin V-FITC (BioVision, CA, USA). The labeled cells were analysed by flow cytometry FACSCalibur ([…], NJ, USA) and CellQuest software. Cells showing green staining in the plasma membrane were considered as apoptotic cells.

[10] = test system: HepG2 cells; test: Annexin V staining and flow cytometry, HepG2; format: cell-based, human; conditions: HepG2, 24 hr; TRAIL 100 ng/ml
Experimental: as §1, §2

[Br-].c1ccc(CCn2cc[n+](CCc3ccccc3)c2)cc1 [IBN-32, 1,3-di(2-phenylethyl)-imidazolium bromide]
IC50 ([1]; 72 h): 20 µM | IC50 ([1]; 120 h): 20 µM | cell apoptosis (Q2) [2]: 18% | cells in the S phase [3]: 14.6% | cells in the G2/M phase [3]: 18.9% | cells in the G1 phase [3]: 32.3%

Cc1n(Cc2ccccc2)cc[n+]1Cc1ccccc1.[Br-] [compound C, 1,3,-Dibenzyl-2-methylimidazolium bromide]
IC50 [4]: 35 µM | IC50 [5]: 35 µM | IC50 in normal breast epithelial cells [6]: no IC50

Cc1n(Cc2ccccc2)cc[n+]1Cc1ccccc1C(F)(F)F.[Cl-] [IBN-25, 1-benzyl-3-(2-trifluoromethylbenzyl)-2-methylimidazolium chloride]
IC50 ([1]; 72 h): 30 µM | IC50 ([1]; 120 h): 35 µM | cells in the S phase [3]: 14.3% | cells in the G2/M phase [3]: 19.4% | cells in the G1 phase [3]: 34.5% | activation and cleavage of caspase 3, caspase 9 and PARP [7]: induced significant activation and cleavage | anti-apoptotic gene BCl-2 expression [8]: significantly down regulated | cell proliferation genes (Mcl1, Egr1, Foxo3, Jun, Mdm4, Nf1, Prm1D, Sesn1, E2f11, Prkca, Brca1) [8]: significantly down regulated | increase of ATM gene expression vs control ([8]; IBN-19 90 uM, IBN-24 90 uM, IBN-25 40 uM): 9 folds

[Br-].c1ccc(Cn2c[n+](Cc3ccccc3)cc2-c2ccccc2)cc1 [IBN-15, 1,3-Dibenzyl-5-phenylimidazolium bromide]
IC50 ([1]; 72 h): 60 µM | IC50 ([1]; 120 h): 20 µM | cell apoptosis (Q2) [2]: 33% | cells in the S phase [3]: 19.7% | cells in the G2/M phase [3]: 21% | cells in the G1 phase [3]: 42%

B1: TRAIL: TNF-Related Apoptosis Inducing Ligand, used as a positive control for apoptosis (protein, UniProt P50591 1-281, looked up)
Tumor necrosis factor ligand …: MAMMEVQGGPSLGQTCVLIVIFTVLLQSLCVAVTYVYFTNELKQMQDKYSKSGIACFLKEDDSYWDPNDEESMNSPCWQVKWQLRQLVRKMILRTSEETISTVQEKQQNISPLVRERGPQRVAAHITGTRGRSNTLSSPNSKNEKALGRKINSWESSRSGHSFLSNLHLRNGELVIHEKGFYYIYSQTYFRFQEEIKENTKNDKQMVQYIYKYTSYPDPILLMKSARNSCWSKDAEYGLYSIYQGGIFELKENDRIFVSVTNEHLIDMDHEASFFGAFLVG
apoptosis (annexin V staining) [9]: not in HLE cells | apoptosis (annexin V staining) [10]: only induced apoptosis in HepG2

— patent US9072729B2, “Method for treating fibrosis and cancer with imidazolium and imidazolinium compounds” (Agency for Science, Technology and Research, priority 2008, dated 2015)
